Measurements: patent US8426426B2, “Gyrase inhibitors and uses thereof” (Vertex Pharmaceuticals Incorporated, priority 2002, dated 2013)
Values after ≈ are worked out from the molar mass of the structure shown.

Tests used:
S. aureus = test: Susceptibility testing in liquid media (MIC assay) against S. aureus; assay type: cell-based; settings: 35° C. overnight (16 to 20 hours); for MIC: Staphylococcus aureus
Procedure: (§1) Compounds of this invention were tested for antimicrobial activity by susceptibility testing in liquid media. Such assays were performed within the guidelines of the latest NCCLS document governing such practices: “M7-A5 Methods for dilution Antimicrobial Susceptibility Tests for Bacteria that Grow Aerobically; Approved Standard—Fifth Edition (2000)”. Other publications such as “Antibiotics in Laboratory Medicine” (Edited by V. Lorian, Publishers Williams and Wilkins, 1996) provide essential practical techniques in laboratory antibiotic testing.
(§2) Several discrete bacterial colonies (3 to 7) from a freshly streaked plate were transferred to an appropriate rich broth medium such as MHB, supplemented where appropriate for the more fastidious organisms. This was grown overnight to high density followed by a 1 or 2-thousand-fold dilution to give an inoculation density of between 5×10^5 and 5×10^6 CFU per mL. Alternatively, the freshly picked colonies can be incubated at 37° C. for about 4 to 8 hours until the culture equals or exceeds a turbidity of a 0.5 McFarland standard (approximately 1.5×10^8 cells per mL) and diluted to give the same CFU per mL as above. In a more convenient method, the inoculum was prepared using a commercially available mechanical device (the BBL PROMPT System) that involves touching five colonies directly with a wand, containing crosshatch grooves at its bottom, followed by suspension of the bacteria in an appropriate volume of saline. Dilution to the appropriate inoculum cell density was made from this cell suspension. The broth used for testing consists of MHB supplemented with 50 mg per L of Ca^2+ and 25 mg per L of Mg^2+. Standard dilution panels of control antibiotics were made and stored as in the NCCLS standard M7-A5, the dilution range typically being in the 128 μg per mL to 0.015 μg per mL (by 2-fold serial dilution). The test compounds were dissolved and diluted fresh for experimentation on the same day; the same or similar ranges of concentration as above being used. The test compounds and controls were dispensed into a multiwell plate and test bacteria added such that the final inoculation was approximately 5×10^4 CFU per well and the final volume was 100 μL. The plates were incubated at 35° C. overnight (16 to 20 hours) and checked by eye for turbidity or quantitated with a multiwell plate reader. […] Such determinations were also compared to the appropriate tables contained in the above two publications to ensure that the range of antibacterial activity is within the acceptable range for this standardized assay.
(§3) The compound numbers correspond to the compound numbers in Table 1.

S. pneumoniae = test: Susceptibility testing in liquid media (MIC assay) against S. pneumoniae; assay type: cell-based; settings: Streptococcus pneumoniae, 35° C. overnight (16 to 20 hours)
Procedure: as §1, §2, §3

Compound	MIC (S. aureus)	MIC (S. pneumoniae)	MIC (Activity) against S. aureus (S. aureus)
CCNC(=O)Nc1nc2cc(-c3cccnc3)cc(/C(=N/O)C3CCCC3)c2[nH]1 [Compound I-43]	≤ 0.5 µg/mL	≤ 0.5 µg/mL	–
CCNC(=O)Nc1nc2cc(-c3cccnc3)cc(C(=O)C3CCCC3)c2[nH]1 [Compound I-28]	≤ 0.5 µg/mL	≤ 0.5 µg/mL	–
CCNC(=O)Nc1nc2cc(-c3cccnc3)cc(/C(CC)=N/OC)c2[nH]1 [Compound I-38]	≤ 0.5 µg/mL	≤ 0.5 µg/mL	–
1-(7-Cyclohexanecarbonyl-5-pyridin-3-yl-1H-benzoimidazol-2-yl)-3-ethyl-urea [Compound I-14]	–	–	C (an MIC of greater than 1.0 μg/mL)
CCNC(=O)Nc1nc2cc(-c3ccn(C)c(=O)c3)c(F)c(C(=O)NC)c2[nH]1 [Compound I-36]	> 1 µg/mL	≤ 0.5 µg/mL	–
CCNC(=O)Nc1nc2cc(-c3cccnc3)cc(/C(=N\O)C3CCCC3)c2[nH]1 [Compound I-42]	≤ 0.5 µg/mL	≤ 0.5 µg/mL	–
CCNC(=O)Nc1nc2cc(-c3cccnc3)cc(C(=O)OC(C)C)c2[nH]1 [Compound I-33]	≤ 0.5 µg/mL	≤ 0.5 µg/mL	–
CCNC(=O)Nc1nc2cc(-c3cccnc3)cc(C(=O)OC)c2[nH]1 [Compound I-1, 2-(3-Ethyl-ureido)-6-pyridin-3-yl-3H-benzoimidazole-4-carboxylic acid methyl ester]	≤ 0.5 µg/mL	≤ 0.5 µg/mL	–
CCNC(=O)Nc1nc2cc(-c3cccnc3)cc(C(=O)NCCO)c2[nH]1 [Compound I-13]	> 1 µg/mL	–	–
CCNC(=O)Nc1nc2cc(-c3cccnc3)cc(C(=O)Nc3cc(C)[nH]n3)c2[nH]1 [Compound I-15]	> 1 µg/mL	–	–
CCNC(=O)Nc1nc2cc(-c3cccnc3)c(F)c(C(=O)OC)c2[nH]1 [Compound I-3]	≤ 0.5 µg/mL	–	–
CCNC(=O)Nc1nc2cc(-c3cccnc3)cc(C(=O)c3nccn3CC)c2[nH]1 [Compound I-29]	≤ 0.5 µg/mL	≤ 0.5 µg/mL	–
CCNC(=O)Nc1nc2cc(-c3cccnc3)cc(C(=O)C3CC3)c2[nH]1 [Compound I-25]	≤ 0.5 µg/mL	≤ 0.5 µg/mL	–
CCNC(=O)Nc1nc2cc(-c3cccnc3)cc(/C(=N/OC)C3CC3)c2[nH]1 [Compound I-40, 1-[4-(Cyclopropyl-methoxyimino-methyl)-6-pyridin-3-yl-1H-benzoimidazol-2-yl]-3-ethyl-urea]	≤ 0.5 µg/mL	≤ 0.5 µg/mL	–
CCNC(=O)Nc1nc2cc(-c3cccnc3)cc(C(=O)CC)c2[nH]1 [Compound I-19]	≤ 0.5 µg/mL	≤ 0.5 µg/mL	–
CCNC(=O)Nc1nc2cc(-c3cccnc3)cc(/C(=N/OCC)C3CC3)c2[nH]1 [Compound I-41]	≤ 0.5 µg/mL	≤ 0.5 µg/mL	–
CCNC(=O)Nc1nc2cc(-c3cccnc3)cc(C(=O)NC)c2[nH]1 [Compound I-16]	> 1 µg/mL	–	–
CCCC(=O)c1cc(-c2cccnc2)cc2nc(NC(=O)NCC)[nH]c12 [Compound I-20]	≤ 0.5 µg/mL	≤ 0.5 µg/mL	–
CCNC(=O)Nc1nc2cc(-c3cncnc3)cc(C(=O)OC)c2[nH]1 [Compound I-5]	≤ 0.5 µg/mL	≤ 0.5 µg/mL	–
CCOC(=O)Nc1nc2cc(-c3cccnc3)cc(C(=O)CC)c2[nH]1 [Compound I-44, (7-Propionyl-5-pyridin-3-yl-1H-benzoimidazol-2-yl)-carbamic acid ethyl ester]	> 1 µg/mL	≤ 0.5 µg/mL	–
CCNC(=O)Nc1nc2cc(-c3cc(C)n(Cc4ccccn4)c(=O)c3)cc(C(=O)OC)c2[nH]1 [Compound I-32]	≤ 0.5 µg/mL	≤ 0.5 µg/mL	–
CCNC(=O)Nc1nc2cc(-c3cccnc3)cc(C(=O)c3nccn3C)c2[nH]1 [Compound I-26]	≤ 0.5 µg/mL	≤ 0.5 µg/mL	–
CCNC(=O)Nc1nc2cc(-c3cncnc3)cc(C(=O)NC)c2[nH]1 [Compound I-7]	> 1 µg/mL	–	–
CCNC(=O)Nc1nc2cc(-c3cccnc3)cc(C(=O)C(C)CC)c2[nH]1 (centres unmarked) [Compound I-21]	≤ 0.5 µg/mL	≤ 0.5 µg/mL	–

Now from value to compound, other results behind:

MIC (S. aureus)	MIC (S. pneumoniae)	Compound	MIC (Activity) against S. aureus (S. aureus)
≤ 0.5 µg/mL	≤ 0.5 µg/mL	CCNC(=O)Nc1nc2cc(-c3cccnc3)cc(C(=O)C3CCCCC3)c2[nH]1 [Compound I-11]	–
≤ 0.5 µg/mL	≤ 0.5 µg/mL	CCNC(=O)Nc1nc2cc(-c3cccnc3)cc(C(=O)CC(C)C)c2[nH]1 [Compound I-24]	–
0.5 to 1 µg/mL (≈ 1.31 to 2.62 µM)	≤ 0.5 µg/mL	CCNC(=O)Nc1nc2cc(-c3cccnc3)cc(C(=O)CCCCO)c2[nH]1 [Compound I-37]	–
≤ 0.5 µg/mL	≤ 0.5 µg/mL	CCNC(=O)Nc1nc2cc(-c3cccnc3)cc(C(=O)CCc3ccccn3)c2[nH]1 [Compound I-31]	–
–	> 1 µg/mL	CCNC(=O)Nc1nc2cc(-c3cccnc3)cc(C(=O)CN(C)C)c2[nH]1 [Compound I-4]	–
> 1 µg/mL	≤ 0.5 µg/mL	CCNC(=O)Nc1nc2cc(-c3cccnc3)cc(C(=O)c3cn(C)cn3)c2[nH]1 [Compound I-30]	–
≤ 0.5 µg/mL	≤ 0.5 µg/mL	CCC/C(=N\OC)c1cc(-c2cccnc2)cc2nc(NC(=O)NCC)[nH]c12 [Compound I-39]	–
≤ 0.5 µg/mL	≤ 0.5 µg/mL	CCNC(=O)Nc1nc2cc(-c3cccnc3)cc(C(=O)OCC)c2[nH]1 [Compound I-34]	–
≤ 0.5 µg/mL	≤ 0.5 µg/mL	CCNC(=O)Nc1nc2cc(-c3cccnc3)cc(C(=O)C(C)C)c2[nH]1 [Compound I-22]	–
≤ 0.5 µg/mL	≤ 0.5 µg/mL	CCNC(=O)Nc1nc2cc(-c3ccn(C)c(=O)c3)c(F)c(C(=O)OC)c2[nH]1 [Compound I-35]	–
0.5 to 1 µg/mL (≈ 1.21 to 2.41 µM)	≤ 0.5 µg/mL	CCNC(=O)Nc1nc2cc(-c3cccnc3)cc(C(=O)NCc3ccccc3)c2[nH]1 [Compound I-17]	–
0.5 to 1 µg/mL (≈ 1.4 to 2.81 µM)	–	CCNC(=O)Nc1nc2cc(-c3cccnc3)c(F)c(C(=O)NC)c2[nH]1 [Compound I-6]	–
≤ 0.5 µg/mL	≤ 0.5 µg/mL	CCNC(=O)Nc1nc2cc(-c3cncnc3)cc(C(=O)CC)c2[nH]1 [Compound I-23]	–
≤ 0.5 µg/mL	≤ 0.5 µg/mL	CCNC(=O)Nc1nc2cc(-c3cccnc3)cc(C(C)=O)c2[nH]1 [Compound I-18]	–
